From PubChem BioAssay AID330 (DTP/NCI, 2004)
Values joined by “and” are separate entries in the source; they are usually repeats but may differ in a detail not shown here. Identical values can stand only once. Toxic doses and inconclusive results are not listed. The calls were made as follows: active = survival T/C of 150% or more; inactive = T/C below 125% in these data.

Test system: P388 leukemia ip, CD2F1 mice, survival T/C
Experiment: NCI In Vivo Anticancer Drug Screen. Data for tumor model P388 Leukemia (intraperitoneal) in CD2F1 (CDF1) mice
Details: endpoint: median survival time, higher = longer survival
Outline: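 Mice carrying the transplanted tumor received test compound or vehicle. Survival was recorded in each group, and the value is the treated-group measurement divided by that of the vehicle-treated control group.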

[1] = dose: 50.0 mg/kg/injection, schedule: Q01DX009 (ip), vehicle: saline
[2] = dose: 100.0 mg/kg/injection, schedule: Q01DX009 (ip), vehicle: saline
[3] = dose: 100.0 mg/kg/injection, schedule: Q01DX001 (ip), vehicle: saline
[4] = dose: 200.0 mg/kg/injection, schedule: Q01DX001 (ip), vehicle: saline
[5] = dose: 400.0 mg/kg/injection, schedule: Q01DX001 (ip), vehicle: saline
[6] = dose: 50.0 mg/kg/injection, schedule: Q01DX005 (ip), vehicle: Klucel (hydroxypropylcellulose) (HPC)
[7] = dose: 100.0 mg/kg/injection, schedule: Q01DX005 (ip), vehicle: Klucel (hydroxypropylcellulose) (HPC)
[8] = dose: 200.0 mg/kg/injection, schedule: Q01DX005 (ip), vehicle: Klucel (hydroxypropylcellulose) (HPC)
[9] = dose: 50.0 mg/kg/injection, schedule: Q01DX005 (ip), vehicle: saline with Tween-80
[10] = dose: 100.0 mg/kg/injection, schedule: Q01DX005 (ip), vehicle: saline with Tween-80
[11] = dose: 200.0 mg/kg/injection, schedule: Q01DX005 (ip), vehicle: saline with Tween-80
[12] = dose: 60.0 mg/kg/injection, schedule: Q01DX005 (ip), vehicle: saline with Tween-80
[13] = dose: 120.0 mg/kg/injection, schedule: Q01DX005 (ip), vehicle: saline with Tween-80
[14] = dose: 240.0 mg/kg/injection, schedule: Q01DX005 (ip), vehicle: saline with Tween-80

Measured: T/C

CCCCCCCC[N+](C)(C)CC#CC[N+](C)(C)CCCCCCCC
inactive: dose: 6.25 mg/kg/injection, schedule: Q04DX003 (ip), vehicle: saline 96 % of control | dose: 12.5 mg/kg/injection, schedule: Q04DX003 (ip), vehicle: saline 103 % of control

O=C1Cc2ccccc2C(c2ccc(Cl)cc2Cl)N1 (stereo not drawn)
inactive: [1] 98 % of control | [2] 98 % of control | dose: 200.0 mg/kg/injection, schedule: Q01DX009 (ip), vehicle: saline 100 % of control

C=C1CC2(CC(C)CCC2=C(C)C)OC1=O (stereo not drawn)
inactive: [3] 101 % of control | [4] 100 % of control | [5] 101 % of control

CCOC(=O)/C(C#N)=C/c1ccc(OC)c(OC)c1
inactive: [6] 99 % of control | [7] 108 % of control | [8] 100 % of control

C=CCN(CC=C)Sc1cccc([N+](=O)[O-])c1
inactive: [1] 109 % of control | [2] 117 % of control

CCN(CC)CCCNC(=O)Cc1ccc2c(c1)C(=O)c1ccccc1C2=O
inactive: dose: 25.0 mg/kg/injection, schedule: Q01DX005 (ip), vehicle: water 106 % of control | dose: 50.0 mg/kg/injection, schedule: Q01DX005 (ip), vehicle: water 108 % of control | dose: 100.0 mg/kg/injection, schedule: Q04DX002 (ip), vehicle: water 97 % of control

COc1cc2c(cc1OC)CN1CSc3cc(OC)c(OC)cc3C1C2 (stereo not drawn)
inactive: dose: 100.0 mg/kg/injection, schedule: Q01DX001 (ip), vehicle: saline with Tween-80 92 % of control | dose: 200.0 mg/kg/injection, schedule: Q01DX001 (ip), vehicle: saline with Tween-80 92 % of control

CC(=O)OCC1OC(n2cnc3c(Cl)nc(N)nc32)C(OC(C)=O)C1OC(C)=O (stereo not drawn)
inactive: dose: 25.0 mg/kg/injection, schedule: Q01DX005 (ip), vehicle: Klucel (hydroxypropylcellulose) (HPC) 101 % of control | [6] 101 % of control | [7] 108 % of control | [8] 105 % of control

CC(=O)O/C=C(/C=C/OC(C)=O)C(C/C=C(\C)C#CC=C(C)C)OC(C)=O (stereo not drawn)
inactive: dose: 5.31 mg/kg/injection, schedule: Q01DX005 (ip), vehicle: saline with Tween-80 98 % of control | dose: 10.62 mg/kg/injection, schedule: Q01DX005 (ip), vehicle: saline with Tween-80 103 % of control | dose: 21.25 mg/kg/injection, schedule: Q01DX005 (ip), vehicle: saline with Tween-80 103 % of control and 94 % of control | dose: 42.5 mg/kg/injection, schedule: Q01DX005 (ip), vehicle: saline with Tween-80 87 % of control

O=Cc1cccc(CC(O)(C(F)(F)F)C(F)(F)F)n1
inactive: dose: 12.5 mg/kg/injection, schedule: Q01DX009 (ip), vehicle: saline with Tween-80 95 % of control | dose: 12.5 mg/kg/injection, schedule: Q04DX003 (ip), vehicle: saline with Tween-80 100 % of control | dose: 25.0 mg/kg/injection, schedule: Q01DX009 (ip), vehicle: saline with Tween-80 100 % of control | dose: 25.0 mg/kg/injection, schedule: Q04DX003 (ip), vehicle: saline with Tween-80 100 % of control | dose: 50.0 mg/kg/injection, schedule: Q01DX009 (ip), vehicle: saline with Tween-80 100 % of control | dose: 50.0 mg/kg/injection, schedule: Q04DX003 (ip), vehicle: saline with Tween-80 95 % of control

CCCCCCCCCCCCCCCC(=O)N(C(C)CCCN(CC)CC)C(C)CCCN(CC)CC (stereo not drawn)
inactive: dose: 1.56 mg/kg/injection, schedule: Q01DX009 (ip), vehicle: water 98 % of control | dose: 3.13 mg/kg/injection, schedule: Q01DX009 (ip), vehicle: water 100 % of control | dose: 6.25 mg/kg/injection, schedule: Q01DX009 (ip), vehicle: water 99 % of control | dose: 12.5 mg/kg/injection, schedule: Q01DX009 (ip), vehicle: water 92 % of control

COCC1(C)CCCC2(C)C1CCC13CCC(OC(C)=O)CC12O3 (stereo not drawn)
inactive: [3] 102 % of control | [4] 108 % of control | [5] 110 % of control

CN=C(N/N=C(C)\C=N\NC(=NC)N(C)C)N(C)C
inactive: [9] 109 % of control | [10] 105 % of control | [11] 105 % of control

Cn1c(=O)oc2cc(NC(N)=O)c(Cl)cc21
inactive: [6] 94 % of control | [7] 90 % of control | [8] 86 % of control

CC(=Nc1ccc(N(C)C)cc1)c1ccccc1
inactive: [12] 98 % of control | [13] 98 % of control

CC(=O)O[C@@H]1CO[C@H]2O[C@H]3[C@@H](C(C=O)=C[C@H](O)[C@@H]4C5=C(C(C)C)CC[C@]5(C)CC[C@@]34C)[C@@]2(O)C1=O
inactive: dose: 0.39 mg/kg/injection, schedule: Q01DX009 (ip), vehicle: Klucel (hydroxypropylcellulose) (HPC) 94 % of control | dose: 0.78 mg/kg/injection, schedule: Q01DX009 (ip), vehicle: Klucel (hydroxypropylcellulose) (HPC) 104 % of control | dose: 3.12 mg/kg/injection, schedule: Q01DX009 (ip), vehicle: Klucel (hydroxypropylcellulose) (HPC) 107 % of control and 114 % of control | dose: 6.25 mg/kg/injection, schedule: Q01DX009 (ip), vehicle: Klucel (hydroxypropylcellulose) (HPC) 115 % of control and 121 % of control

N#CC(c1ccccc1)C(CC(=O)c1ccccc1)c1ccccc1 (stereo not drawn)
inactive: dose: 100.0 mg/kg/injection, schedule: Q01DX009 (ip), vehicle: saline with Tween-80 86 % of control | dose: 200.0 mg/kg/injection, schedule: Q01DX009 (ip), vehicle: saline with Tween-80 95 % of control | dose: 400.0 mg/kg/injection, schedule: Q01DX009 (ip), vehicle: saline with Tween-80 95 % of control

OCC1=C(CO)CC=CC1
inactive: [12] 96 % of control | [13] 96 % of control | [14] 95 % of control

OC1c2ccccc2C(O)c2c1ccc1c2CN(Cc2ccccc2)CC1 (stereo not drawn)
inactive: dose: 60.0 mg/kg/injection, schedule: Q01DX005 (ip), vehicle: Klucel (hydroxypropylcellulose) (HPC) 89 % of control | dose: 120.0 mg/kg/injection, schedule: Q01DX005 (ip), vehicle: Klucel (hydroxypropylcellulose) (HPC) 92 % of control | dose: 240.0 mg/kg/injection, schedule: Q01DX005 (ip), vehicle: Klucel (hydroxypropylcellulose) (HPC) 92 % of control

O=C1Nc2ccc3cn[nH]c3c2C1=O
inactive: [9] 98 % of control | [10] 101 % of control | [11] 105 % of control

CCOC(=O)Cc1csc(=S)n1Cc1ccccc1
inactive: [9] 103 % of control | [10] 108 % of control | [11] 95 % of control

COc1cccc2c1C(=O)c1c(O)c3c(c(O)c1C2=O)CC(O)(C(C)=O)CC3OC1CC(NCC2OC(C(=O)O)C(O)C2O)C(O)C(C)O1 (stereo not drawn)
inactive: dose: 3.13 mg/kg/injection, schedule: Q04DX003 (ip), vehicle: water 99 % of control | dose: 6.25 mg/kg/injection, schedule: Q04DX003 (ip), vehicle: water 102 % of control | dose: 12.5 mg/kg/injection, schedule: Q04DX003 (ip), vehicle: water 109 % of control | dose: 25.0 mg/kg/injection, schedule: Q04DX003 (ip), vehicle: water 116 % of control | dose: 50.0 mg/kg/injection, schedule: Q04DX003 (ip), vehicle: water 110 % of control

CC(C)N1CSC(=S)NCCNC(=S)SC1
inactive: [6] 101 % of control | [7] 110 % of control | [8] 110 % of control

C=C1CCN(c2ccc(F)cc2)C1=O
inactive: dose: 4.0 mg/kg/injection, schedule: Q01DX009 (ip), vehicle: saline + alcohol 100 % of control and 103 % of control and 90 % of control | dose: 8.0 mg/kg/injection, schedule: Q01DX009 (ip), vehicle: saline + alcohol 104 % of control and 107 % of control and 94 % of control | dose: 16.0 mg/kg/injection, schedule: Q01DX009 (ip), vehicle: saline + alcohol 110 % of control and 97 % of control | dose: 32.0 mg/kg/injection, schedule: Q01DX009 (ip), vehicle: saline + alcohol 98 % of control and 103 % of control and 104 % of control | dose: 64.0 mg/kg/injection, schedule: Q01DX009 (ip), vehicle: saline + alcohol 98 % of control and 100 % of control and 95 % of control

C1CCC([Se][Se]C2CCCC2)C1
inactive: dose: 12.5 mg/kg/injection, schedule: Q01DX009 (ip), vehicle: Klucel (hydroxypropylcellulose) (HPC) 104 % of control | dose: 25.0 mg/kg/injection, schedule: Q01DX009 (ip), vehicle: Klucel (hydroxypropylcellulose) (HPC) 110 % of control | dose: 50.0 mg/kg/injection, schedule: Q01DX009 (ip), vehicle: Klucel (hydroxypropylcellulose) (HPC) 99 % of control and 101 % of control

CNC(=O)c1c(-c2ccc(F)cc2)noc1C
inactive: [12] 103 % of control | [13] 100 % of control | [14] 103 % of control

O=C1OCCC1(S)C(O)c1ccccc1 (stereo not drawn)
inactive: dose: 21.25 mg/kg/injection, schedule: Q01DX005 (ip), vehicle: acetone 103 % of control | dose: 42.5 mg/kg/injection, schedule: Q01DX005 (ip), vehicle: acetone 100 % of control | dose: 85.0 mg/kg/injection, schedule: Q01DX005 (ip), vehicle: acetone 103 % of control
